The text below walks through data of patent US11066443B2 (Hoffmann-La Roche Inc., priority 2017, dated 2021).

Experiment [1] relates to P. aeruginosa ATCC27853. The experiment can be described thus: Antimicrobial susceptibility testing: microbroth minimum inhibitory concentration (MIC) determination. Particulars: Pseudomonas aeruginosa, CLSI microbroth dilution in CAMHB, read after 20 hours, lowest concentration inhibiting >=80% of growth. It counts as cell-based. On the procedure:
The in vitro antimicrobial activity of the compounds was determined through microbroth minimum inhibitory concentration (MIC) methodology performed according to the Clinical and Laboratory Standard Institute guidelines (CLSI—M07-A9 Jan. 2012. Methods for Dilution Antimicrobial Susceptibility Tests for Bacteria That Grow Aerobically; Approved Standard—Ninth Edition, Clinical and Laboratory Standards Institue, Wayne/PA, US and the CLSI—M100-S24 Jan. 2014. Performance Standards for Antimicrobial Susceptibility Testing; Approved Standard—Fourth Informational Supplement, Clinical and Laboratory Standards Institue, Wayne/PA, US).
The compound stock solution was freshly prepared at 10× the required top concentration for the MIC determination, i.e. at 1280 mg/L, by reconstitution of the dry compound in 50:50 water:DMSO.
Polystyrene non-treated 96 wells microtiter plates were used for preparing panel containing compound serial twofold diluted at two times the final testing concentration (e.g. range from 64 to 0.06 μg/ml) in cation adjusted Mueller Hinton broth medium (CAMHB).
Inoculum was prepared by the “direct colony suspension method”. Colonies of P. aeruginosa ATCC27853 or clinical isolates were suspended in saline solution and adjusted to 0.5 McFarland, diluted 100 times in CAMHB broth and 50 μl added to each well (final concentration of cells ˜5×10^(5) CFU/ml and Final volume/well of 100 μl). Microtiter plates were sealed and incubated at 35±2° C.
MICs values were read after 20 hours of incubation and recorded as the lowest concentration of the antimicrobial that inhibits more or equal to 80% of growth of the organism as detected by the unaided eye and using a microtiter plate optical density reader (OD 600 nm).
Table 1 provides the minimum inhibitory concentration (MIC) in microgram per milliliter of the compounds of present invention obtained against the P. aeruginosa ATCC27853 (Table 1).
In general terms: Dilution methods test growth across graded concentrations, often in twofold steps.

For experiment [2], the system named is P. aeruginosa NCTC11454. The experiment can be described thus: Antimicrobial susceptibility testing: 50% growth inhibitory concentration (IC50) determination. It counts as cell-based. Particulars: Pseudomonas aeruginosa, Iso-Sensitest broth, OD 600 nm every 20 minutes over 16h, growth inhibition during logarithmic growth. The essentials:
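Twofold dilutions (e.g. 50–0.097 μM final) in Iso-Sensitest broth were inoculated with P. aeruginosa NCTC11454 at ~5×10^5 CFU/mL and incubated at 35±2 °C. OD600 was read every 20 min over 16 h. IC50 was derived from growth inhibition in the logarithmic phase.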

Values after ≈ are worked out from the molar mass of the structure shown.

By MIC is commonly meant the least concentration at which growth counts as inhibited. Low readings indicate a more susceptible organism, high ones a less susceptible organism. By IC50 is commonly meant the concentration that gives 50% inhibition. Low values mean greater potency in that assay, high ones weaker potency in that assay. Consider `CN1C(=O)[C@H](CCCCN)NC(=O)[C@H](CCCN)NCc2ccccc2Sc2cc(Cl)ccc2CNC(=O)[C@@H]1Cc1c[nH]c2ccccc12` [Example 2, (12S,15S,18S)-15-(4-Amino-butyl)-18-(3-amino-propyl)-5-chloro-12-(1H-indol-3-ylmethyl)-13-methyl-2-thia-10,13,16,19-tetraaza-tricyclo[19.4.0.0*3,8*]pentacosa-1(21),3,5,7,22,24-hexaene-11,14,17-trione], for which, in experiment [1], 32 µg/mL (≈ 45.4 µM) was the least that counted as inhibitory (MIC). In experiment [2], this molecule displayed an IC50 greater than 50 µM.

On to `Cc1[nH]c2ccccc2c1C[C@H]1C(=O)NCc2cc(Cl)ccc2Sc2ccccc2CN[C@@H](CCCN)C(=O)N[C@@H](CCCCN)C(=O)N1C` [Example 15, (12S,15S,18S)-15-(4-Amino-butyl)-18-(3-amino-propyl)-6-chloro-13-methyl-12-(2-methyl-1H-indol-3-ylmethyl)-2-thia-10,13,16,19-tetraaza-tricyclo[19.4.0.0*3,8*]pentacosa-1(21),3,5,7,22,24-hexaene-1,14,17-trione], for which the MIC in experiment [1] was determined as 32 µg/mL (≈ 44.5 µM). For the same molecule, the IC50 in experiment [2] amounted to 32 µM.

Turning to `CN1C(=O)[C@H](CCCCN)NC(=O)[C@H](CCCN)NCc2ccccc2Sc2c(Cl)cc(-c3cn(C)cn3)cc2CNC(=O)[C@@H]1Cc1c[nH]c2ccccc12` [Example 37, (12S,15S,18S)-15-(4-Amino-butyl)-18-(3-amino-propyl)-4-chloro-12-(1H-indol-3-ylmethyl)-13-methyl-6-(1-methyl-1H-imidazol-4-yl)-2-thia-10,13,16,19-tetraaza-tricyclo[19.4.0.0*3,8*]pentacosa-1(25),3,5,7,21,23-hexaene-11,14,17-trione], inhibition of growth in experiment [1] (MIC) required 32 µg/mL (≈ 40.8 µM). In experiment [2], this molecule had a half-inhibitory concentration (IC50) of 95.7 µM.

As to `CN1C(=O)[C@H](CCCCN)NC(=O)[C@H](CCCN)NCc2ccccc2Sc2c(cc(-c3ccccc3)cc2C(F)(F)F)CNC(=O)[C@@H]1Cc1c[nH]c2ccccc12` [Example 28, (12S,15S,18S)-15-(4-Amino-butyl)-18-(3-amino-propyl)-12-(1H-indol-3-ylmethyl)-13-methyl-6-phenyl-4-trifluoromethyl-2-thia-10,13,16,19-tetraaza-tricyclo[19.4.0.0*3,8*]pentacosa-1(25),3,5,7,21,23-hexaene-11,14,17-trione], in experiment [1], the lowest concentration to inhibit growth (MIC) was 8 µg/mL (≈ 9.83 µM). The molecule also gave a half-maximal inhibitory concentration (IC50) in experiment [2] of 8.8 µM.

In the case of `CN1C(=O)[C@H](CCCCN)NC(=O)[C@H](CCCN)NCc2cc(F)ccc2Sc2c(Cl)cc(Cl)cc2CNC(=O)[C@@H]1Cc1c[nH]c2ccccc12` [Example 12, (12S,15S,18S)-15-(4-Amino-butyl)-18-(3-amino-propyl)-4,6-dichloro-23-fluoro-12-(1H-indol-3-ylmethyl)-13-methyl-2-thia-10,13,16,19-tetraaza-tricyclo[19.4.0.0*3,8*]pentacosa-1(25),3,5,7,21,23-hexaene-11,14,17-trione], in experiment [1], the MIC was determined as 32 µg/mL (≈ 42.3 µM).

The molecule `CC(C)c1ccc2c(c1)CNC(=O)[C@H](Cc1c[nH]c3ccccc13)N(C)C(=O)[C@H](CCCCN)NC(=O)[C@H](CCCN)NCc1ccccc1S2` [Example 21, (12S,15S,18S)-15-(4-Amino-butyl)-18-(3-amino-propyl)-12-(1H-indol-3-ylmethyl)-6-isopropyl-13-methyl-2-thia-10,13,16,19-tetraaza-tricyclo[19.4.0.0*3,8*]pentacosa-1(25),3,5,7,21,23-hexaene-11,14,17-trione] returned a minimal inhibitory concentration (MIC) in experiment [1] of 32 µg/mL (≈ 44.9 µM).
